What was measured:
[1] = xn = mol fraction of the nth substance listed; details: 101 kPa, Liquid; for viscosity: Capillary tube (Ostwald / Ubbelohde) method; for mass density: Vibrating tube method
[2] = refractive index (Na D-line) (dimensionless); xn = mol fraction of the nth substance listed; details: 101 kPa, Liquid, Standard Abbe refractometry

CCOC(=O)C(=O)OCC [diethyl ethanedioate] + O=C1CCCCC1
Details | mass density, 303.15 K [kg/m3] | mass density, 308.15 K [kg/m3] | mass density, 313.15 K [kg/m3] | refractive index, 303.15 K | refractive index, 308.15 K | refractive index, 313.15 K | viscosity, 303.15 K [mPa·s] | viscosity, 308.15 K [mPa·s] | viscosity, 313.15 K [mPa·s]
[1], x1 = 0.0784 | 950.2 | 945.1 | 940.1 | – | – | – | 1.777 | 1.595 | 1.466
[1], x1 = 0.1495 | 961 | 955.8 | 950.6 | – | – | – | 1.737 | 1.556 | 1.416
[1], x1 = 0.2501 | 975.4 | 970.3 | 964.9 | – | – | – | 1.682 | 1.5 | 1.36
[1], x1 = 0.3443 | 988.4 | 983.1 | 977.7 | – | – | – | 1.637 | 1.461 | 1.325
[1], x1 = 0.4324 | 1000 | 994.7 | 989.2 | – | – | – | 1.609 | 1.435 | 1.304
[1], x1 = 0.5507 | 1015.1 | 1009.6 | 1004 | – | – | – | 1.584 | 1.415 | 1.285
[1], x1 = 0.6755 | 1030.3 | 1024.7 | 1019 | – | – | – | 1.575 | 1.404 | 1.276
[1], x1 = 0.7601 | 1040.2 | 1034.5 | 1028.7 | – | – | – | 1.581 | 1.407 | 1.284
[1], x1 = 0.8756 | 1053.1 | 1047.4 | 1041.4 | – | – | – | 1.606 | 1.437 | 1.329
[1], x1 = 0.9502 | 1061 | 1055.3 | 1049.3 | – | – | – | 1.62 | 1.464 | 1.351
[2], x1 = 0.0784 | – | – | – | 1.4429 | 1.4406 | 1.4388 | – | – | –
[2], x1 = 0.1495 | – | – | – | 1.4399 | 1.4376 | 1.4359 | – | – | –
[2], x1 = 0.2501 | – | – | – | 1.4359 | 1.434 | 1.4321 | – | – | –
[2], x1 = 0.3443 | – | – | – | 1.4323 | 1.4307 | 1.4287 | – | – | –
[2], x1 = 0.4324 | – | – | – | 1.4287 | 1.4273 | 1.4252 | – | – | –
[2], x1 = 0.5507 | – | – | – | 1.4239 | 1.4223 | 1.4204 | – | – | –
[2], x1 = 0.6755 | – | – | – | 1.4186 | 1.4168 | 1.4152 | – | – | –
[2], x1 = 0.7601 | – | – | – | 1.4154 | 1.4133 | 1.4116 | – | – | –
[2], x1 = 0.8756 | – | – | – | 1.4108 | 1.4088 | 1.4071 | – | – | –
[2], x1 = 0.9502 | – | – | – | 1.4081 | 1.4059 | 1.4043 | – | – | –

CCOC(=O)C(=O)OCC [diethyl ethanedioate] + CCC(=O)CC
Details | mass density, 303.15 K [kg/m3] | mass density, 308.15 K [kg/m3] | mass density, 313.15 K [kg/m3] | refractive index, 303.15 K | refractive index, 308.15 K | refractive index, 313.15 K | viscosity, 303.15 K [mPa·s] | viscosity, 308.15 K [mPa·s] | viscosity, 313.15 K [mPa·s]
[1], x1 = 0.0865 | 834 | 829.9 | 825.8 | – | – | – | 0.485 | 0.452 | 0.44
[1], x1 = 0.1436 | 852 | 847.8 | 843.6 | – | – | – | 0.527 | 0.491 | 0.478
[1], x1 = 0.2448 | 882.5 | 878.2 | 873.8 | – | – | – | 0.61 | 0.567 | 0.551
[1], x1 = 0.3389 | 909.4 | 905 | 900.5 | – | – | – | 0.701 | 0.65 | 0.627
[1], x1 = 0.4495 | 939.4 | 934.8 | 930.1 | – | – | – | 0.818 | 0.759 | 0.726
[1], x1 = 0.5325 | 960.8 | 956.1 | 951.2 | – | – | – | 0.916 | 0.848 | 0.808
[1], x1 = 0.6518 | 990 | 985.1 | 979.9 | – | – | – | 1.071 | 0.987 | 0.936
[1], x1 = 0.7587 | 1014.7 | 1009.6 | 1004.2 | – | – | – | 1.224 | 1.121 | 1.061
[1], x1 = 0.8659 | 1038.2 | 1032.9 | 1027.2 | – | – | – | 1.395 | 1.274 | 1.196
[1], x1 = 0.9438 | 1054.6 | 1049.1 | 1043.3 | – | – | – | 1.525 | 1.391 | 1.295
[2], x1 = 0.0865 | – | – | – | 1.3901 | 1.3881 | 1.3861 | – | – | –
[2], x1 = 0.1436 | – | – | – | 1.3916 | 1.3897 | 1.3877 | – | – | –
[2], x1 = 0.2448 | – | – | – | 1.3941 | 1.3924 | 1.3906 | – | – | –
[2], x1 = 0.3389 | – | – | – | 1.3962 | 1.3947 | 1.393 | – | – | –
[2], x1 = 0.4495 | – | – | – | 1.3984 | 1.3969 | 1.3954 | – | – | –
[2], x1 = 0.5325 | – | – | – | 1.3999 | 1.3983 | 1.3969 | – | – | –
[2], x1 = 0.6518 | – | – | – | 1.4018 | 1.4 | 1.3986 | – | – | –
[2], x1 = 0.7587 | – | – | – | 1.4033 | 1.4014 | 1.3998 | – | – | –
[2], x1 = 0.8659 | – | – | – | 1.4047 | 1.4026 | 1.4008 | – | – | –
[2], x1 = 0.9438 | – | – | – | 1.4056 | 1.4034 | 1.4015 | – | – | –

From the NIST ThermoML archive (doi:10.1021/je100715x)
